Source: BindingDB's records for doi:10.1016/s0960-894x(98)00691-x (Novartis Pharmaceuticals, 1999)

Assay: Inhibition of Cyclin-dependent kinase 1, CDK1-related human bladder carcinoma (T24) cell proliferation

IC50: 830 nM
Structure (SMILES): CCn1cnc2c(Nc3cccc(Cl)c3)nc(N[C@H]3CC[C@@H](O)CC3)nc21 [4-[6-(3-Chloro-phenylamino)-9-ethyl-9H-purin-2-ylamino]-cyclohexanol]
